US8383608B2, “Imidazolidine compounds as androgen receptor modulators” (Dart Therapeutics LLC, priority 2008, dated 2013)
Where two headings read alike, the source gives them in different places.

Columns and labels:
[1] = molecular target: T1, human androgen receptor (hAR) (Homo sapiens, UniProt P10275); assay: Functional response (transactivation) test in HALP2 cells (HeLa stably expressing hAR and ARE-luciferase reporter); assay type: cell-based; details: HALP2 cells; for Emax: HeLa, maximal activation by the compound compared with DHT alone (100%), read-out: % effect relative to DHT (100%)
T1 construct: expressed in transfected cells
T1 sequence (P10275 1-920): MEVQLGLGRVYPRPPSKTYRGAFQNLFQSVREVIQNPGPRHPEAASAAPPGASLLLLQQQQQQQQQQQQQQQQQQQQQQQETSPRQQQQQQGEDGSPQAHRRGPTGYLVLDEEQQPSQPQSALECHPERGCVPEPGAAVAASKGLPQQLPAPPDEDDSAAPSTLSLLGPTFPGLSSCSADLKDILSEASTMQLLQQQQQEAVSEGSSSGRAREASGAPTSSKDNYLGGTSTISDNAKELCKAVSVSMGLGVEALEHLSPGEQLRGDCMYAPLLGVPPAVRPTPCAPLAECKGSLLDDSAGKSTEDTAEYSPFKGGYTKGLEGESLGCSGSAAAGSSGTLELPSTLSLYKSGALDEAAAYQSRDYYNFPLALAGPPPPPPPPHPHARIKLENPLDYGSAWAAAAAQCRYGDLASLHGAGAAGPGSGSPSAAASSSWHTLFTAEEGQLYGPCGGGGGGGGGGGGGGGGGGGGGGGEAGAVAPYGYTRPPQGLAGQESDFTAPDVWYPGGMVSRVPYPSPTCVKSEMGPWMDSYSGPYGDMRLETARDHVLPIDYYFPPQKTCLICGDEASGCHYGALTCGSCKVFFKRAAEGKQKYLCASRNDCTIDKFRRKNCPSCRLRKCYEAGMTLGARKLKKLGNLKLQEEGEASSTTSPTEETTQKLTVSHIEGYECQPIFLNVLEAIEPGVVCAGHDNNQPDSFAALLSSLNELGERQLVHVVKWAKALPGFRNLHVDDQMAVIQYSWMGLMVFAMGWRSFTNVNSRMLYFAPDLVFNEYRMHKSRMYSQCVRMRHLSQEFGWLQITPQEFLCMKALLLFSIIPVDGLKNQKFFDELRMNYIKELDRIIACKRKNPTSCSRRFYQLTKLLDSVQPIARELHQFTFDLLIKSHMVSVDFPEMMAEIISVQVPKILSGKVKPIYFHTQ
Excerpt: This test constitutes a method of identifying pure or partial agonists which mimic the effects of natural hormones, such as DHT (dihydrotestosterone) in the present case or, on the other hand, antagonists which inhibit them.
For this transactivation test, plasmids encoding a reporter gene and the human androgen receptor (hAR) are introduced together by transfection into the HeLa cell line. The reporter plasmid contains luciferase cDNA under the control of the AREs contained in the promoter sequences of the probasin gene (3xpbAREminicoll-luciferase/pGL3-puro). The expression of the reporter gene constitutes an indication of the transcriptional activity of hAR. It also encodes a protein allowing the cells expressing it to resist a treatment with puromycin. The plasmid encoding hAR contains the cDNA of hAR under the control of the Cytomegalovirus (CMV) promoter. It also encodes a protein allowing the cells expressing it to resist a treatment with neomycin. The treatment of cells with increasing amounts of potentially agonistic compounds will increase the expression of the reporter gene. To detect antagonists, on the other hand, increasing doses of test compounds are tested in the presence of […] of DHT. The expression of the reporter gene, which is constant for each dose of DHT, decreases when the concentration of the test compounds increases.
The functional response test is conducted on 96-well plates. The HALP2 cells are seeded (20,000 cells per well) in culture medium (DMEM with phenol red, 1% de Pen-Strep, 1% of non-essential amino acids, 10% of fetal bovine serum, 400 μg/mL Geneticin and 0.150 puromycin) on day 1. After 24 hours incubating at 37° C., 5% CO2, high humidity (day 2) the medium is removed and refreshed with test medium (DMEM without phenol red supplemented, 1% de Pen-Strep, 1% of non-essential amino acids and 5% of desteroidised foetal bovine serum). After another 24 hours incubating at 37° C., 5% CO2, high humidity (day 3), the medium is renewed once more before the phase of stimulation.
The cells are placed in contact with the compounds for 24 hours at 37° C., 5% CO2, high humidity. On day 4 the medium is then removed and the luciferase activity reading reagent is placed in contact with the cells in accordance with the manufacturer's instructions (SteadyLite, Perkin-Elmer). The luminescence produced is detected on an Envision reader (Perkin-Elmer). […]
The determination of the relative agonism/antagonism of a compound is obtained by comparing the maximal activation obtained with said compound and the activation obtained with DHT alone (100%).

[2] = system: castrated immature young rats; assay: Adapted model of Hershberger's test; assay type: in vivo, Sprague Dawley rats; details: Rattus norvegicus, po, 96 h, ORX control = 0%, SHAM control = 100%, per os daily for 4 days, dose tested 30 mg/kg
[3] = Determination of absolute bioavailability (restricted PK profile, oral and intravenous); assay type: in vivo; details: male, Sprague-Dawley, rat, plasma, po, 10 mg/kg, absolute bioavailability (F), male Sprague Dawley rats, oral 10 mg/kg AUC(0-6 h) vs intravenous 3 mg/kg AUC(0-3 h); read-out: Bioavailability
Method: To screen rapidly imidazolidines derivatives based on their absolute bioavailabity, restricted pharmacokinetic profile with only fours sampling time points after oral and intravenous route is investigated in Sprague Dawley rats as follows: each test compound is dosed orally (10 mg/kg) and intravenously (3 mg/kg) to groups of 3 male Sprague Dawley rats. Oral doses are administered as solution in EtOH/PEG400/H2O (1/79/20; v/v) by esophageal gavage (2 mg/mL; 5 mL/kg) and intravenous dose is given as solution in DMSO/PEG400/H2O (1/65/34; v/v) as a bolus in the tail vein (3 mg/mL; 1 mL/kg). Before oral dosing, animals are deprived of food (water ad libitum) for at least 16 hours before the start of the study and 6 hours after administration.
Blood is collected at the retro-orbital sinus into polypropylene tubes (Li-heparinate) at +4° C. at the following sampling-times: 0.083, 0.25, 1 and 3 h after intravenous injection and 0.25, 1, 3 and 6 hours after oral dosing. Three (3) animals are sampled per time-point; each animal being sampled four times. After centrifugation at 5000 rpm for 10 min at +4° C., plasma is collected into polypropylene tubes and kept frozen at −20° C. pending assays. Plasma samples are assayed by a LC-MS/MS method with a lower limit of quantification of 1 to 10 ng/mL depending on the compound (volume of plasma: 100 μL).
A LC-MS/MS method for quantification in heparinized plasma was developed for each test compound. Sample preparation consists of a precipitation of plasma proteins with methanol and filtration by centrifugation of supernatant on Captiva deep-well 96 0.2 μm filter plates. Water was added to methanol supernatant phase prior to analysis by liquid chromatography (Pursuit 5 C18 20×2.0 mm VARIAN, 2 μL loop, gradient Water/Methanol (90/10 to 0/100) over 1.7 min) with turboionspray tandem mass spectrometry (API4000) in negative mode using multiple reaction monitoring. The method includes 8 standard and 3 quality control levels with lower limit of quantification corresponding to first standard level.
Exposures are determined using a non compartmental model (WinNonLin 2.1) and the absolute bioavailability (F) is calculated as follows: [AUC(0-6 h) oral*3 mg/kg]/AUC(0-3 h) IV 10 mg/kg] and expressed in percentage.

[4] = levator ani weight, read-out: Anabolic activity %
[5] = ventral prostate weight, read-out: Androgenic activity % (Prostate)

| Structure (SMILES) | Emax [1] [%] | response vs control in vivo at 30 mg/kg [2, 4] [%] | response vs control in vivo at 30 mg/kg [2, 5] [%] | EC50 ([1]; agonism: concentration inducing 50% of the maximum agonistic effect of the tested compound, 24 hours, read-out: EC50) [nM] | bioavailability [3] [%] |
| --- | --- | --- | --- | --- | --- |
| CN1C(=O)N(c2ccc(C#N)c(C(F)(F)F)c2)C(=O)[C@]1(CO)c1ccccc1 [Example 11, (R)-4-[2,5-Dioxo-4-(hydroxymethyl)-3-methyl-4-phenylimidazolidin-1-yl]-2-trifluoromethylbenzonitrile] | 0 to 5 | 50 to 75 | 0.5 to 25 |  |  |
| CN1C(=O)N(c2ccc(C#N)c(C(F)(F)F)c2)C(=O)C1(CO)c1ccc(F)cc1 (centres unmarked) [Example 6, 4-[2,5-Dioxo-4-(4-fluorophenyl)-4-(hydroxymethyl)-3-methylimidazolidin-1-yl]-2-trifluoromethylbenzonitrile] | 21 to 40 | 25 to 50 | 0.5 to 25 | 11 to 100 | 50 to 90 |
